We go through 26 compounds from ChEMBL document CHEMBL3792312, “Synthesis and docking studies of pyrazine-thiazolidinone hybrid scaffold targeting dormant tuberculosis” (Bioorg Med Chem Lett, 2016).

A word on the IC50: it is the concentration at which inhibition is half-maximal. A higher IC50 goes with weaker potency in that assay. Broadly, the MIC is the smallest concentration in the dilution series that meets the test's criterion for growth inhibition.

Test [1] concerns Mycobacterium tuberculosis. In words: Antitubercular activity against dormant Mycobacterium bovis BCG after at 30 ug 12 days by nitrate reductase assay. The class given is functional, variant bovis BCG.
The subject of test [2] is Mycobacterium tuberculosis. The experiment in a line: Antitubercular activity against dormant Mycobacterium bovis BCG after at 10 ug 12 days by nitrate reductase assay. The class given is functional, variant bovis BCG.
Test [3] has as its system Mycobacterium tuberculosis. The experiment in a line: Antitubercular activity against dormant Mycobacterium bovis BCG after at 3 ug 12 days by nitrate reductase assay. It counts as functional, variant bovis BCG.
Test [4] concerns Mycobacterium tuberculosis. In words: Antitubercular activity against dormant Mycobacterium bovis BCG after 12 days by nitrate reductase assay. The following applies: variant bovis BCG, 288 h. The class given is functional, organism-based.

The structures appear in SMILES notation. ≈ marks a conversion by molar mass, not a printed value.

Regarding `Nc1nccnc1C(=O)NN1C(=O)CS[C@H]1c1ccc([N+](=O)[O-])cc1`, the “inhibition (INH)” value stood at 96.67% in test [1], 34.04% in test [2] and 45.89% in test [3].
The compound `Cc1cnc(C(=O)NN2C(=O)CS[C@H]2c2ccc(N(C)C)cc2)cn1` came in with an IC50 in test [4] of 21.8 µg/mL (≈ 61 µM). Moreover, the lowest concentration to inhibit growth in test [4] (MIC) was 29.4 µg/mL (≈ 82.3 µM). Besides, the results for the “inhibition (INH)” value in test [1], in test [2] and in test [3] were 92.16%, 75.69% and 30.06%, respectively.
For `Nc1nccnc1C(=O)NN1C(=O)CSC1c1ccc(Cl)cc1Cl` (stereo not drawn), the “inhibition (INH)” value in test [1] is listed as 56.5348%; in test [2] it was 27.48%; in test [3] it was 22.55%.
Taken in the same sequence, the figures for `Nc1nccnc1C(=O)NN1C(=O)CSC1c1cccc([N+](=O)[O-])c1` (stereo not drawn) were 64.92%, 38.85% and 47.21%.
As for `Nc1nccnc1C(=O)NN1C(=O)CSC1c1ccccc1` (stereo not drawn), 12.9 µg/mL (≈ 40.9 µM) corresponded to half-maximal inhibition in test [4] (IC50). The compound further returned an MIC in test [4] of 24.4 µg/mL (≈ 77.4 µM). Further, the “inhibition (INH)” value in test [1] amounted to 97.97%; in test [2], 30.74%; in test [3], 11.98%.
In test [4], `O=C(NN1C(=O)CS[C@@H]1c1ccc(Cl)cc1)c1cnccn1` gave an IC50 of 3.26 µg/mL (≈ 9.74 µM). In test [4], this compound yielded an MIC of 8.48 µg/mL (≈ 25.3 µM). For the same compound, the “inhibition (INH)” value is given as 96.24% in test [1], 91.85% in test [2] and 43.58% in test [3].
Regarding `CN(C)c1ccc(C2SCC(=O)N2NC(=O)c2nccnc2N)cc1` (stereo not drawn), the “inhibition (INH)” value was 32.8615% in test [1], 44.99% in test [2] and 26.9022% in test [3].
As to `O=C(NN1C(=O)CSC1c1ccc(O)cc1)c1cnccn1` (stereo not drawn), the “inhibition (INH)” value worked out at 54.42% in test [1], 16.47% in test [2] and 9.989% in test [3].
Taken in the same sequence, the figures for `Nc1nccnc1C(=O)NN1C(=O)CSC1c1ccc(F)cc1` (stereo not drawn) were 63.72%, 26.63% and 12.4938%.
Regarding `Nc1nccnc1C(=O)NN1C(=O)CSC1c1ccc(Cl)cc1` (stereo not drawn), the results for the “inhibition (INH)” value in test [1], in test [2] and in test [3] were 76.11%, 46.72% and 22.09%, respectively.
The like results for `Nc1nccnc1C(=O)NN1C(=O)CSC1c1ccc(O)cc1` (stereo not drawn) were, in that order, 82.99%, 45.87% and 14.76%.
For the compound `Cc1cnc(C(=O)NN2C(=O)CSC2c2ccc(O)cc2)cn1` (stereo not drawn), the entries for the “inhibition (INH)” value in test [1], in test [2] and in test [3] were 77.54%, -17.5884% and -7.23%, respectively.
Compound `CCOc1cc([C@@H]2SCC(=O)N2NC(=O)c2cnc(C)cn2)ccc1O` registered an IC50 in test [4] of 9.46 µg/mL (≈ 25.3 µM). This compound had an MIC in test [4] of 15.9 µg/mL (≈ 42.5 µM). Moreover, the entries for the “inhibition (INH)” value in test [1], in test [2] and in test [3] were 97.31%, 34.91% and -10.8481%, respectively.
For `O=C(NN1C(=O)CS[C@@H]1c1ccc([N+](=O)[O-])cc1)c1cnccn1`, the IC50 in test [4] stood at 4.93 µg/mL (≈ 14.3 µM). It took 9.38 µg/mL (≈ 27.2 µM) to inhibit growth in test [4] (MIC). Also, the “inhibition (INH)” value in test [1] is given as 98.6%; in test [2] it was 92.72%; in test [3] it was 24.09%.
For `COc1ccc(C2SCC(=O)N2NC(=O)c2cnc(C)cn2)cc1OC` (stereo not drawn), the “inhibition (INH)” value was 96.436% in test [1], 14.41% in test [2] and -15.2185% in test [3].
The like results for `Cc1cnc(C(=O)NN2C(=O)CSC2c2ccccc2)cn1` (stereo not drawn) were, in that order, 96.6%, -6.383% and 34.12%.
`COc1cc([C@@H]2SCC(=O)N2NC(=O)c2cnc(C)cn2)ccc1O` gave an IC50 in test [4] of 5.1 µg/mL (≈ 14.2 µM). Moreover, 12.2 µg/mL (≈ 34 µM) was the least that counted as inhibitory in test [4] (MIC). For the same compound, the results for the “inhibition (INH)” value in test [1], in test [2] and in test [3] were 98.03%, 81.1965% and 3.203%, respectively.
As to `COc1ccc(C2SCC(=O)N2NC(=O)c2cnc(C)cn2)cc1` (stereo not drawn), the “inhibition (INH)” value in test [1] is given as 88.13%; in test [2], 66.73%; in test [3] it was -16.0935%.
In test [4], `COc1ccc([C@H]2SCC(=O)N2NC(=O)c2nccnc2N)cc1OC` had an IC50 of 23.4 µg/mL (≈ 62.5 µM). In addition, the MIC in test [4] stood at 29.2 µg/mL (≈ 77.9 µM). In addition, the “inhibition (INH)” value in test [1] amounted to 94.4%; in test [2], 25.35%; in test [3], 3.112%.
The like results for `Cc1cnc(C(=O)NN2C(=O)CS[C@@H]2c2cccc([N+](=O)[O-])c2)cn1` were, in that order, 9.89 µg/mL (≈ 27.5 µM), 18.5 µg/mL (≈ 51.5 µM), 96.43%, 88.47% and 10.69%.
Regarding `Cc1cnc(C(=O)NN2C(=O)CSC2c2ccc(Cl)cc2)cn1` (stereo not drawn), the “inhibition (INH)” value was 61.87% in test [1], 48.01% in test [2] and 44.18% in test [3].
`Cc1cnc(C(=O)NN2C(=O)CS[C@@H]2c2ccc([N+](=O)[O-])cc2)cn1`: the IC50 in test [4] was 23.4 µg/mL (≈ 65.3 µM). This compound registered an MIC in test [4] of 28.8 µg/mL (≈ 80.1 µM). In addition, the “inhibition (INH)” value in test [1] was 97.76%; in test [2], 56.74%; in test [3], -13.1407%.
The like results for `CCOc1cc([C@H]2SCC(=O)N2NC(=O)c2nccnc2N)ccc1O` were, in that order, 23.4 µg/mL (≈ 62.4 µM), 29.4 µg/mL (≈ 78.4 µM), 97.5903%, 23.79% and 30.79%.
In test [4], `NNC(=O)c1ccncc1` [ISONIAZID] had an MIC of 0.045 µg/mL (≈ 0.328 µM).
Still for that read-out and setting: the value for `NC(=O)c1cnccn1` [PYRAZINAMIDE] was over 100 µg/mL.
As to `CO[C@H]1/C=C/O[C@@]2(C)Oc3c(C)c(O)c4c(O)c(c(/C=N/N5CCN(C)CC5)c(O)c4c3C2=O)NC(=O)/C(C)=C\C=C\[C@H](C)[C@H](O)[C@@H](C)[C@@H](O)[C@@H](C)[C@H](OC(C)=O)[C@@H]1C` [RIFAMPIN], in test [4], inhibition was half-maximal at 0.004 µg/mL (≈ 0.00486 µM) (IC50) and inhibition of growth (MIC) required 0.04 µg/mL (≈ 0.0486 µM).
